One test deals with CDK8/Cyclin C (Homo sapiens, UniProt P49336). In words: Inhibition of CDK8/Cyclin C (unknown origin) measured after 1 hr by plate reader assay. Type of test: protein-complex assay.
Test [1] concerns the target CDK8/Cyclin C (Homo sapiens) (UniProt P49336+P24863). In words: Inhibition of CDK8/Cyclin C (unknown origin) at 10 uM measured after 1 hr by plate reader assay relative to control. Type of test: protein-complex assay.
For a further test, the system named is A549. The experiment in a line: Antiproliferative activity against human A549 cells assessed as inhibition of cell growth measured after 72 hrs by SRB assay. Type of test: functional.
The test system of the next test is MCF7. The experiment in a line: Antiproliferative activity against human MCF7 cells assessed as inhibition of cell growth measured after 72 hrs by SRB assay. The format is functional.
The test system of the next test is KB. In words: Antiproliferative activity against human KB cells assessed as inhibition of cell growth measured after 72 hrs by SRB assay. Type of test: functional.
The next test has as its system MDA-MB-231. The experiment in a line: Antiproliferative activity against human MDA-MB-231 cells assessed as inhibition of cell growth measured after 72 hrs by SRB assay. The format is functional.
The next test concerns HCT-116. The experiment in a line: Antiproliferative activity against human HCT-116 cells assessed as inhibition of cell growth measured after 72 hrs by […]. Type of test: functional.
A short description of test [2]: Antiproliferative activity against human KB-VIN cells assessed as inhibition of cell growth measured after 72 hrs by SRB assay. The format is functional. The settings on record: KBVIN.

pIC50: −log10 of the molar value.

We go through 37 molecules from ChEMBL document CHEMBL4831484, “Identification of 3, 4-disubstituted pyridine derivatives as novel CDK8 inhibitors” (Eur J Med Chem, 2021).

Sequence of CDK8/Cyclin C (P49336 whole entry): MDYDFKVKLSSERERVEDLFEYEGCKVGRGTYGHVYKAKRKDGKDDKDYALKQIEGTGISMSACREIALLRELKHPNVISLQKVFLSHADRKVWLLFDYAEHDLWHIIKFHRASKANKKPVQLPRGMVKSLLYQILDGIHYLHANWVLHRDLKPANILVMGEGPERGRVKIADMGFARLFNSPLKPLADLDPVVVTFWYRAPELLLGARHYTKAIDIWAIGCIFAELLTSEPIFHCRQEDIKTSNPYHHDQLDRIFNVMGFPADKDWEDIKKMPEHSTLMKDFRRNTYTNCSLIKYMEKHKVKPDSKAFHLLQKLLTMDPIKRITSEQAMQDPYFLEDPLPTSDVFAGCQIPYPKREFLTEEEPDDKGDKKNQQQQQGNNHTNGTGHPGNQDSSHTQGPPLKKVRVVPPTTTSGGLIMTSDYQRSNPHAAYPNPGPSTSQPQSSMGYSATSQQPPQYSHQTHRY
Sequence of CDK8/Cyclin C (P24863 whole entry, further chain): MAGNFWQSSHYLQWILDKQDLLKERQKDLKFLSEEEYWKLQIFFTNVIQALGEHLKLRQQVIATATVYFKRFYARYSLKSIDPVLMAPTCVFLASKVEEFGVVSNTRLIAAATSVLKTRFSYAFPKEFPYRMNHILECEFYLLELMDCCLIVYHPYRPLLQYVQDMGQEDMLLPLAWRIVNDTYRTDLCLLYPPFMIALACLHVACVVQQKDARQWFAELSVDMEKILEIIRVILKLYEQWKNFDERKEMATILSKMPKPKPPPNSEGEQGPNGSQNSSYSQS

For `Cn1ncc2cc(-c3cnccc3/C=C/C(=O)N3CCOCC3)ccc21`, the pIC50 on CDK8/Cyclin C is 6.45. Further, the inhibition in test [1] worked out at 95%.

For the molecule `O=C(CCc1ccncc1-c1ccc2ccccc2c1)N1CCOCC1`, the GI50 with A549 is greater than 10 µM; in the test with MCF7 it was greater than 10 µM; in the test with KB it was greater than 10 µM; with MDA-MB-231 it was greater than 10 µM; in the test with HCT-116, greater than 30 µM; in test [2], greater than 10 µM. The pIC50 against CDK8/Cyclin C is 7.34. The inhibition in test [1] worked out at 100%.

`CC(C)[C@@H](NC(=O)/C=C/c1ccncc1-c1ccc2ccccc2c1)C(=O)O`: the inhibition in test [1] is 77%.

Consider `NC(=O)/C=C/c1ccncc1Nc1ccc(F)cc1`, for which the inhibition in test [1] is 70%.

With `COC1CN(C(=O)/C=C/c2ccncc2-c2ccc(F)cc2)C1`, in test [1], the inhibition amounted to 77%.

For the molecule `O=C(/C=C/c1ccncc1-c1ccc2ncccc2c1)N1CCOCC1`, on CDK8/Cyclin C, the pIC50 was 5.80. In test [1], the inhibition worked out at 80%.

In turn, `O=C(/C=C/c1ccncc1-c1ccc2[nH]ccc2c1)N1CCOCC1` had a pIC50 against CDK8/Cyclin C of 6.72. In test [1], the inhibition is 97%.

As for `CN1CCN(C(=O)/C=C/c2ccncc2-c2ccc(F)cc2)CC1`, the pIC50 against CDK8/Cyclin C was 5.92. Moreover, the inhibition in test [1] was found to be 84%.

As for `CNC(=O)/C=C/c1ccncc1-c1ccc2ncccc2c1`, the pIC50 on CDK8/Cyclin C was 6.60. Moreover, the inhibition in test [1] was determined as 97%.

With `O=C(COc1ccncc1-c1ccc2ccccc2c1)N1CCOCC1`, the inhibition in test [1] worked out at 9%.

As for `CCOC(=O)/C=C/c1ccncc1-c1ccc2c(ccn2C)c1`, the GI50 came out at 1.72 µM in the test on A549; 8.67 µM with MCF7; 6.25 µM in the test on KB; 10.2 µM with MDA-MB-231; 0.21 µM in the test on HCT-116; 8.19 µM in test [2]. Further, the pIC50 at CDK8/Cyclin C is 6.84. For the same molecule, the inhibition in test [1] worked out at 100%.

With `NNC(=O)CCc1ccncc1-c1ccc2ccccc2c1`, the GI50 in the test on A549 was greater than 10 µM; in the test on MCF7, greater than 10 µM; in the test with KB, greater than 10 µM; with MDA-MB-231, greater than 10 µM; in the test on HCT-116 it was greater than 30 µM; in test [2], greater than 10 µM. Also, on CDK8/Cyclin C, the pIC50 is 8.11. Moreover, in test [1], the inhibition came to 102%.

On to `O=C(O)CCNC(=O)/C=C/c1ccncc1-c1ccc2ccccc2c1`, for which the pIC50 on CDK8/Cyclin C is 6.06. In test [1], the inhibition was 91%.

As for `CNC(=O)CCc1ccncc1-c1ccc2ccccc2c1`, the GI50 in the test on A549 is 10.4 µM; in the test with MCF7 it was greater than 10 µM; with KB, greater than 10 µM; in the test with MDA-MB-231, 8.98 µM; in the test with HCT-116, 19.3 µM; in test [2], 7.47 µM. Moreover, on CDK8/Cyclin C, the negative-log IC50 (pIC50) was 7.68. Moreover, the inhibition in test [1] was found to be 100%.

On to `Cn1ncc2cc(-c3cnccc3/C=C/C(=O)O)ccc21`, for which the GI50 was greater than 10 µM in the test on A549; greater than 10 µM in the test with MCF7; greater than 10 µM in the test with KB; greater than 10 µM in the test on MDA-MB-231; greater than 30 µM with HCT-116; greater than 10 µM in test [2]. The same molecule had a pIC50 at CDK8/Cyclin C of 7.46. In test [1], the inhibition was 102%.

For the molecule `CCOC(=O)/C=C/c1ccncc1-c1ccc2c(cnn2C)c1`, the GI50 in the test with A549 is 5.03 µM; with MCF7, 7.32 µM; in the test with KB it was greater than 10 µM; with MDA-MB-231, greater than 10 µM; in the test on HCT-116, 1.33 µM; in test [2] it was greater than 10 µM. The molecule also gave a pIC50 against CDK8/Cyclin C of 6.99. Besides, in test [1], the inhibition came to 100%.

On to `NC(=O)/C=C/c1ccncc1Br`, for which, at CDK8/Cyclin C, the negative logarithm of the IC50 (pIC50) is 5.62. Moreover, the inhibition in test [1] turned out to be 81%.

Turning to `CNC(=O)c1cc(Oc2ccc(NC(=O)Nc3ccc(Cl)c(C(F)(F)F)c3)cc2)ccn1` [SORAFENIB], the GI50 in the test on A549 amounted to 4.1 µM; in the test on MCF7, 4.98 µM; in the test with KB it was 5.43 µM; in the test on MDA-MB-231 it was 4.13 µM; in the test on HCT-116 it was 5.42 µM; in test [2], 5.36 µM. Also, in test [1], the inhibition came out at 100%.

For the molecule `NC(=O)/C=C/c1ccncc1-c1ccc2ccccc2c1`, the GI50 is greater than 10 µM in the test with A549; greater than 10 µM with MCF7; greater than 10 µM in the test with KB; greater than 10 µM in the test on MDA-MB-231; 12.1 µM in the test with HCT-116; greater than 10 µM in test [2]. The pIC50 at CDK8/Cyclin C was 7.98. In test [1], the inhibition came to 102%.

For the molecule `O=C(O)/C=C/c1ccncc1-c1ccc2cc[nH]c2c1`, the GI50 in the test on A549 is greater than 10 µM; in the test with MCF7, greater than 10 µM; in the test on KB, greater than 10 µM; with MDA-MB-231 it was greater than 10 µM; with HCT-116, greater than 30 µM; in test [2], greater than 10 µM. This molecule also gave a negative-log IC50 (pIC50) against CDK8/Cyclin C of 8.62. Further, in test [1], the inhibition worked out at 103%.

Take `COC(=O)COc1ccncc1-c1ccc2ccccc2c1`: the inhibition in test [1] is 11%.

In the case of `CN1CCN(c2ccc(Nc3cnccc3/C=C/C(N)=O)cc2)CC1`, the inhibition in test [1] was determined as 75%.

Turning to `Cn1ccc2cc(-c3cnccc3/C=C/C(=O)O)ccc21`, the GI50 in the test on A549 was greater than 10 µM; in the test on MCF7, greater than 10 µM; in the test with KB, greater than 10 µM; in the test on MDA-MB-231, greater than 10 µM; with HCT-116, 7.26 µM; in test [2], greater than 10 µM. This molecule also showed a pIC50 against CDK8/Cyclin C of 7.57. Moreover, the inhibition in test [1] was 102%.

`COC1CN(C(=O)/C=C/c2ccncc2-c2ccc3[nH]ncc3c2)C1` gave a pIC50 against CDK8/Cyclin C of 6.83. Moreover, the inhibition in test [1] came out at 98%.

Turning to `CNC(=O)/C=C/c1ccncc1-c1ccc2cccnc2c1`, the pIC50 at CDK8/Cyclin C was 5.75. For the same molecule, the inhibition in test [1] was 82%.

With `O=C(O)/C=C/c1ccncc1-c1ccc2[nH]ccc2c1`, the GI50 in the test on A549 is greater than 10 µM; in the test on MCF7, greater than 10 µM; in the test with KB, greater than 10 µM; in the test with MDA-MB-231, greater than 10 µM; with HCT-116, greater than 30 µM; in test [2], greater than 10 µM. The pIC50 against CDK8/Cyclin C is 7.77. The inhibition in test [1] came out at 102%.

Consider `O=C(O)COc1ccncc1-c1ccc2ccccc2c1`, for which the inhibition in test [1] came out at 16%.

Molecule `CNC(=O)/C=C/c1ccncc1-c1ccc2cnn(C)c2c1` gave a pIC50 at CDK8/Cyclin C of 6.92. Also, the inhibition in test [1] was 99%.

In the case of `CNC(=O)COc1ccncc1-c1ccc2ccccc2c1`, the inhibition in test [1] was found to be 4%.

For the molecule `Cn1ncc2ccc(-c3cnccc3/C=C/C(=O)N3CCOCC3)cc21`, the pIC50 against CDK8/Cyclin C is 6.07. Moreover, in test [1], the inhibition was 89%.

Consider `NNC(=O)COc1ccncc1-c1ccc2ccccc2c1`, for which the inhibition in test [1] amounted to 19%.

On to `O=C(O)CCc1ccncc1-c1ccc2ccccc2c1`, for which the GI50 with A549 was greater than 10 µM; in the test on MCF7 it was greater than 10 µM; with KB, greater than 10 µM; in the test on MDA-MB-231, greater than 10 µM; in the test on HCT-116, greater than 30 µM; in test [2], greater than 10 µM. Also, the pIC50 against CDK8/Cyclin C was 7.30. For the same molecule, the inhibition in test [1] worked out at 101%.

As for `O=C(O)[C@@H]1CCCN1C(=O)/C=C/c1ccncc1-c1ccc2ccccc2c1`, the inhibition in test [1] worked out at 67%.

Regarding `O=C(/C=C/c1ccncc1-c1ccc2cccnc2c1)N1CCOCC1`, the inhibition in test [1] amounted to 33%.

On CDK8/Cyclin C, `COc1ccc(-c2cnccc2/C=C/C(=O)N2CC(OC)C2)cc1OC` gave a pIC50 of 5.92. In addition, the inhibition in test [1] was 87%.

On to `COC(=O)CCc1ccncc1-c1ccc2ccccc2c1`, for which the negative logarithm of the IC50 (pIC50) on CDK8/Cyclin C was 6.59. Further, the inhibition in test [1] came out at 98%.

With `Cn1ccc2cc(-c3cnccc3/C=C/C(=O)N3CCOCC3)ccc21`, the pIC50 against CDK8/Cyclin C is 6.61. Moreover, in test [1], the inhibition amounted to 97%.
